The source of these data is article PMC12635268, “Novel antimicrobial peptides and peptide-microbiome crosstalk in Appalachian salamander skin” (NPJ Biofilms and Microbiomes, 2025).

In one data set the test system is P. aeruginosa PA01. The experiment in a line: microbe, parasite or virus in culture. It is filed as cell-based. Here is the method: Antimicrobial susceptibility testing of the 20 synthesized peptides against 17 bacterial strains of clinical relevance in the ESKAPEE panel was conducted using minimum inhibitory concentration (MIC) assays following the broth microdilution method outlined by Parker et al.[91]. The ESKAPEE panel is comprised of fourteen American Type Culture Collection (ATCC) strains and three Multidrug Resistant Organism Repository and Surveillance Network (MRSN) bacterial strains. These strains represent at least one drug-susceptible strain and one drug-resistant strain for each bacterium to assess drug efficacy across various resistance mechanisms. This panel is comprised of the following bacterial species and strains: E. faecium (ATCC 19434, ATCC 49224), S. aureus (ATCC 25923, ATCC 43300), K. pneumoniae (ATCC 700603, ATCC 13883, MRSN 1320), A. baumannii (ATCC 17978, ATCC 19606, MRSN 959), P. aeruginosa (ATCC 15692, ATCC 27853, MRSN 5519), E. cloacae (ATCC 13047, ATCC 35549), and E. coli (ATCC 35218, ATCC 43888). Bacteria were grown in cation-adjusted Mueller-Hinton broth (CAMHB) to achieve a final inoculum of 1 × 10⁵ CFU/mL. CAMHB is selected for its batch-to-batch reproducibility, low levels of antimicrobial inhibitors, and ability to support the growth of most bacterial pathogens.
Briefly, lyophilized peptides were dissolved in 0.2% TFA + 0.4% BSA in water to 2.56 mg/mL, ultrasonicated for 20 min, diluted 10-fold into CAMHB, and then serially diluted 2-fold in 0.02% TFA + 0.04% BSA in CAMHB and assayed at a concentration of 0.25 to 128 μg/mL. Assays were set up using the Tecan Freedom EVO liquid handling robot and software (Tecan, Switzerland) with 50 μL of bacterial inoculum and 50 μL of peptide transferred into round-bottom 96-well microtiter plates. Each plate assay was performed in duplicate and incubated at 37 °C for 20 h without agitation. Bacterial growth was assessed using the BIOMIC V3 Image Analysis system (Giles Scientific, USA) and the MIC values were determined visually according to the Clinical and Laboratory Standards Institute (CLSI) guidelines.

The test system of the next data set is A. baumannii ATCC 19606. The experiment in a line: microbe, parasite or virus in culture. The method in brief: (§1)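 Each strain was exposed in duplicate to two-fold peptide dilutions (0.25 to 128 μg/mL) in cation-adjusted Mueller-Hinton broth at 1 × 10⁵ CFU/mL. After 20 h at 37 °C without shaking, the lowest concentration lacking visible growth was recorded following CLSI.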

A further data set relates to S. aureus ATCC 25923. Briefly: microbe, parasite or virus in culture. The conditions noted are these: ATCC 25923, 20 h. In a few lines: as §1
For a further data set, the system named is E. cloacae ATCC 13047. The experiment in a line: microbe, parasite or virus in culture. The method in brief:
as §1

Another data set has as its system K. pneumoniae ATCC 13883. Briefly: microbe, parasite or virus in culture. The method in brief:
as §1

In the next data set the test system is A. baumannii ATCC 17978. The experiment in a line: microbe, parasite or virus in culture. In a few lines:
as §1

A further data set deals with E. faecium ATCC 19434. Briefly: microbe, parasite or virus in culture. The method in brief: as §1
The next data set has as its system S. aureus ATCC 43300. Briefly: microbe, parasite or virus in culture. The conditions noted are these: S. aureus 43300. The method in brief:
as §1

For data set [1], the system named is K. pneumoniae ATCC 700603. The experiment in a line: microbe, parasite or virus in culture. The conditions noted are these: K. pneumoniae 700603. The method in brief:
as §1

In the next data set the test system is E. cloacae ATCC 35549. Briefly: microbe, parasite or virus in culture. In a few lines: as §1
In the next data set the test system is E. coli ATCC 35218. The experiment in a line: microbe, parasite or virus in culture. In a few lines:
as §1

The next data set deals with P. aeruginosa ATCC 27853. Briefly: microbe, parasite or virus in culture. The note with it: ATCC 27853, 20 h. In a few lines: as §1
For the next data set, the system named is E. coli ATCC 43888. The experiment in a line: microbe, parasite or virus in culture. The note with it: ATCC 43888, 20 h. The method in brief:
as §1

In the next data set the test system is E. faecium ATCC 49224. Briefly: microbe, parasite or virus in culture. The method in brief:
as §1

In a further data set the test system is P. aeruginosa MRSN 5519. Briefly: microbe, parasite or virus in culture. The method in brief: as §1
On the set-up of data set [2]: method as in Biomatik (vendor). The conditions noted are these: 1.0 mg peptide in 1.0 ml solvent; peptides synthesized by Biomatik; ref Biomatik (vendor); cited from earlier work.
The subject of another data set is P. aeruginosa PA01 (Si). Briefly: microbe, parasite or virus in culture. It is filed as cell-based. The note with it: Si. The source says:
Supplement 41522_2025_837_MOESM13_ESM.xlsx, sheet "Table_S13_ESKAPEE-MIC" | column: Bacterial MIC (µg/mL)

The mark [3] stands for this setting: CAMHB, 1 × 10⁵ CFU/mL, 0.25 to 128 μg/mL, 37 °C 20 h, duplicate, read visually (CLSI).

Values after ≈ are worked out from the molar mass of the structure shown. Ends that are not written are not given here. Peptide text beside a SMILES is read from it.

With `CC[C@H](C)[C@H](NC(=O)[C@H](CO)NC(=O)[C@H](Cc1ccc(O)cc1)NC(=O)[C@H](CS)NC(=O)CNC(=O)[C@H](C)NC(=O)[C@H](CCCNC(=N)N)NC(=O)[C@H](CCCNC(=N)N)NC(=O)[C@H](Cc1ccc(O)cc1)NC(=O)[C@H](CS)NC(=O)[C@H](CCCCN)NC(=O)[C@H](Cc1c[nH]c2ccccc12)NC(=O)[C@@H]1CCCN1C(=O)[C@H](CCCNC(=N)N)NC(=O)[C@H](C)NC(=O)[C@H](CCCNC(=N)N)NC(=O)[C@H](CCCNC(=N)N)NC(=O)[C@@H](NC(=O)[C@H](CCCNC(=N)N)NC(=O)[C@@H](NC(=O)[C@H](CCCNC(=N)N)NC(=O)[C@H](CCCCN)NC(=O)[C@@H](N)CO)[C@@H](C)O)C(C)C)C(=O)N[C@H](C(=O)NCC(=O)N[C@@H](CCSC)C(=O)N[C@@H](Cc1ccccc1)C(=O)N[C@@H](CCCCN)C(=O)N[C@@H](CCCCN)C(=O)N[C@@H](CO)C(=O)O)[C@@H](C)CC` [Pcin-CATH5] (H-SKRTRVRRARPWKCYRRAGCYSIIGMFKKS-OH; N-terminus and C-terminus assumed), the MIC in the data set on P. aeruginosa PA01 (20 h) is 16 µg/mL (≈ 4.37 µM); in the data set with K. pneumoniae 4640 (K. pneumoniae 4640, CAMHB, 1 × 10⁵ CFU/mL, 0.25 to 128 μg/mL, 37 °C 20 h, duplicate, read visually (CLSI)), above 128 µg/mL; in the data set on A. baumannii 5075 (setting [3]) it was 4 µg/mL (≈ 1.09 µM); against A. baumannii ATCC 19606 (A. baumannii 19606, CAMHB, 1 × 10⁵ CFU/mL, 0.25 to 128 μg/mL, 37 °C 20 h, duplicate, read visually (CLSI)), 8 µg/mL (≈ 2.18 µM); against S. aureus ATCC 25923 it was above 128 µg/mL; in the data set with E. cloacae ATCC 13047 (E. cloacae 13047, CAMHB, 1 × 10⁵ CFU/mL, 0.25 to 128 μg/mL, 37 °C 20 h, duplicate, read visually (CLSI)), above 128 µg/mL. Besides, the MIC with K. pneumoniae ATCC 13883 (K. pneumoniae 13883, CAMHB, 1 × 10⁵ CFU/mL, 0.25 to 128 μg/mL, 37 °C 20 h, duplicate, read visually (CLSI)) is above 128 µg/mL; against A. baumannii ATCC 17978 (A. baumannii 17978, CAMHB, 1 × 10⁵ CFU/mL, 0.25 to 128 μg/mL, 37 °C 20 h, duplicate, read visually (CLSI)) it was 8 µg/mL (≈ 2.18 µM); with E. faecium ATCC 19434 (E. faecium 19434, CAMHB, 1 × 10⁵ CFU/mL, 0.25 to 128 μg/mL, 37 °C 20 h, duplicate, read visually (CLSI)), 64 µg/mL (≈ 17.5 µM); with S. aureus ATCC 43300 (setting [3]), 64 µg/mL (≈ 17.5 µM); in [1] (setting [3]), above 128 µg/mL; against E. cloacae ATCC 35549 (E. cloacae 35549, CAMHB, 1 × 10⁵ CFU/mL, 0.25 to 128 μg/mL, 37 °C 20 h, duplicate, read visually (CLSI)), above 128 µg/mL. Further, the MIC against E. coli ATCC 35218 (ATCC 35218, 20 h) is 32 µg/mL (≈ 8.74 µM); against P. aeruginosa ATCC 27853, above 128 µg/mL; against E. faecium ATCC 49224 (E. faecium 49224, CAMHB, 1 × 10⁵ CFU/mL, 0.25 to 128 μg/mL, 37 °C 20 h, duplicate, read visually (CLSI)), 64 µg/mL (≈ 17.5 µM); with P. aeruginosa MRSN 5519 (P. aeruginosa 5519, CAMHB, 1 × 10⁵ CFU/mL, 0.25 to 128 μg/mL, 37 °C 20 h, duplicate, read visually (CLSI)), above 128 µg/mL. In addition, the “Bacterial MIC” value was 128 µg/mL with S. aureus ATCC 25923; 16 to 32 µg/mL with E. coli ATCC 35218 (ATCC 35218, 20 h); 16 µg/mL with E. coli ATCC 43888; 8 to 16 µg/mL with P. aeruginosa PA01 (Si). Besides, in [2], the “Suggest solvent (solubility)” value is reported as 1.0mg peptide soluble in 1.0ml H2O.

KEGCKEIKGP [TrPr-Eb20]: the “Bacterial MIC” value is reported as above 128.000 µg/mL with P. aeruginosa PA01 (P. aeruginosa 15692 (PAO1), Week 2 (12/14/2023)); above 128.000 µg/mL with K. pneumoniae 4640 (4640, 20 h); above 128.000 µg/mL in the data set on A. baumannii 5075 (Week 2 (12/14/2023)); above 128.000 µg/mL in the data set with A. baumannii ATCC 19606 (ATCC 19606, 20 h); above 128.000 µg/mL in the data set on S. aureus ATCC 25923; above 128.000 µg/mL in the data set with E. cloacae ATCC 13047 (ATCC 13047, 20 h). The “Bacterial MIC” value in the data set with K. pneumoniae ATCC 13883 (ATCC 13883, 20 h) was above 128.000 µg/mL; with A. baumannii ATCC 17978 (ATCC 17978, 20 h), above 128.000 µg/mL; in the data set with E. faecium ATCC 19434 (ATCC 19434, 20 h), above 128.000 µg/mL; in the data set with S. aureus ATCC 43300 (Week 2 (12/14/2023)), above 128.000 µg/mL; in [1] (Week 2 (12/14/2023)) it was above 128.000 µg/mL; with E. cloacae ATCC 35549 (ATCC 35549, 20 h), above 128.000 µg/mL. In addition, the “Bacterial MIC” value is on record as above 128.000 µg/mL with E. coli ATCC 35218 (E. coli 35218, Week 2 (12/14/2023)); above 128.000 µg/mL in the data set with P. aeruginosa ATCC 27853; above 128.000 µg/mL in the data set with E. coli ATCC 43888; above 128.000 µg/mL in the data set with E. faecium ATCC 49224 (ATCC 49224, 20 h); above 128.000 µg/mL in the data set on P. aeruginosa MRSN 5519 (MRSN 5519, 20 h); above 128.000 µg/mL in the data set with P. aeruginosa PA01 (Si). The “Suggest solvent (solubility)” value in data set [2] was 1.0mg peptide soluble in 1.0ml H2O.
